The text below walks through data of US8299252B2, “Pyrazolopyridine and pyrrolopyridine multikinase inhibitors” (Chugai Seiyaku Kabushiki Kaisha, priority 2005, dated 2012).

The subject of series [1] is human umbilical vein endothelial cells (HUVEC), VEGF-independent proliferation. Kind of series: VEGF-independent HUVEC proliferation inhibition assay. The class given is cell-based. The note with it: read-out: 50% proliferation inhibitory concentration (IC50 value) HUVEC (VEGF-independent), vascular endothelial cell growth-promoting agent and heparin, 72 hours, WST-1. On the procedure:
(§1) The compounds according to the present invention were measured for cancer cell proliferation inhibitory activity and human umbilical vein endothelial cell (HUVEC) proliferation inhibitory activity.
(§2) Test compounds were serially diluted with dimethyl sulfoxide and then diluted 50 times with Ca^2+- and Mg^2+-free phosphate-buffered saline, and 20 μL of each of the resulting solution was dispensed into a 96-well plate. […] Each cell suspension contains approximately 3000 cells/180 μL. These cell suspensions were dispensed to the plate containing the test compounds at 180 μL/well and incubated in a 5% carbon dioxide gas incubator at 37° C. for 72 hours. 20 μL of WST-8 (HCT116, Dojin) or WST-1 (HUVEC, Roche Diagnostics) was added to each well, and absorbance at 450 nm (reference wavelength: 650 nm) was measured.
In general terms: Tetrazolium dyes change colour on reduction, which living cells bring about.

Series [2] in a line: Pharmacokinetics test, oral administration. Conditions: female, Balb/c nude, mouse, 100 mg/kg, plasma. The class given is in vivo. On the procedure:
The compound according to the present invention and known Compound A were measured for pharmacokinetics. Each of the test compounds was orally administered to each female Balb/c nude mouse at a dose of 100 mg/kg, and concentrations of the compound in plasma 0.5, 2, 7, and 24 hours after the administration were quantitatively measured by LC-MS-MS.

Series [3] deals with choroidal neovascularization. Description: Laser coagulation-induced murine choroidal neovascularization model. It is filed as in vivo, C57BL6J mice. The note with it: for Average FA score: once a day for three days. On the procedure: Laser coagulation was performed on two- to three-month-old C57BL6J mice (ten mice per group) by using a 408 nm semiconductor laser (DC-3000, Nidek). Both eyes were each irradiated at three positions with a spot size of 170 μm, an exposure time of 0.02 sec, and an output of 200 mW. The drug was orally administered once a day for three days beginning on the day of the laser coagulation. On the next day of the last administration, the mice were intravenously injected with 7 mg/kg of fluorescein. Five minutes after the injection, three fluorescent fundus images of each eye were taken (TRC-501X, Topcon) and stored in a CCD camera having 640×480 pixels as an image file. The total pixel brightness (0 to 1) in regions where fluorescein leakage was detected was used as an index (FA score) of choroidal neovascularization activity. The FA score was calculated by defining reference values such that the pixel brightness in a capillary region of a non-coagulated site is 0 and the pixel brightness on a main branch of the retinal blood vessel is 1.

Series [4] can be described thus: Solubility in fasted state simulated intestinal fluid. Conditions: pH 6.5, fassif, kinetic from dmso stock, fasted state simulated intestinal fluid (pH6.5), 37° C. The class given is physicochemical. On the procedure: 2 μL of each dimethyl sulfoxide solutions containing test compounds were dispensed into wells of a 96-well plate, and 200 μL of fasted state simulated intestinal fluid (pH6.5) was added to each well. The plate was shaken at 37° C. for 20 hours. The solution was filtered through a membrane filter, and 101 μL of the filtrate was transferred to a UV plate, followed by addition of 100 μL of a solution mixture of ethanol:water=2:1 thereto. Separately, as a standard, 101 μL of a solution prepared by 2 μL of a dimethyl sulfoxide solution, 4 μL of dimethyl sulfoxide, 400 μL of ethanol, and 200 μL of water was transferred to a UV plate, and 100 μL of fasted state simulated intestinal fluid (pH6.5) was added thereto. The solubility was calculated by the following expression: Solubility=[(absorbance of test solution)−blank]/[(absorbance of standard solution)−blank]×165 μM (165 μM is the concentration of the standard solution) Composition of the fasted state simulated intestinal fluid (pH6.5)
The composition was prepared in compliance with the description in E. Galia, et al., Pharm. Res. 1998, 698.
Taurocholic acid (161 mg), L-α-phosphatidylcholine (59 mg), potassium dihydrogen phosphate (0.39 g), and potassium chloride (0.77 g) were added to about 90 mL of water. The resulting solution was adjusted to a pH of 6.5 with a sodium hydroxide aqueous solution and then diluted to a volume of 100 mL with water. The solution was filtered through a membrane filter.

Series [5] concerns human colon cancer cell line HCT116 cells. Description: Antitumor test, HCT116 transplanted subcutaneously in nude mice. The class given is in vivo, female Balb/c nude mouse. The note with it: 100 mg/kg oral, once a day for 12 days. The protocol: A cell suspension of human colon cancer cell line HCT116 cells was prepared using Hanks's solution, and 5.0×10^6 cells thereof were transplanted subcutaneously into the flank of each female Balb/c nude mouse. Oral administration of the test compound (once a day for 12 days) was started when the transplanted tumor volume reached 200 to 250 mm^3. The tumor volume was calculated by the expression: 0.5×(minor axis)^2×(major axis). The tumor growth inhibition ratio of tumor growth of the test compound to tumor growth of the reference group was determined.

In series [6] the test system is tube formation of human-derived vascular endothelial cells (HUVEC). Description: Tube formation inhibition test (angiogenesis assay kit, KURABO). It is filed as cell-based. Conditions: 264 h, final concentration 6.4 nM, 11 days, read-out: Tube formation inhibition ratio (%). On the procedure: The formed tubes were stained with a tube staining kit CD31 (KURABO). The stain image of each well was taken under a microscope, stored in an image file, and measured for the tube formation area using angiogenesis quantitative analysis software of KURABO. The inhibition ratio % of each test compound added to the well was calculated, provided that the ratio of the reference was 100%.

The test system of series [7] is human colon cancer cell line HCT116 cells. Description: Cell proliferation inhibitory activity, HCT116. It is filed as cell-based. The note with it: Homo sapiens, HCT-116, read-out: 50% proliferation inhibitory concentration (IC50 value) HCT116; HCT116, 72 hours, WST-8. On the procedure:
as §1, §2

For series [8], the system named is human umbilical vein endothelial cells (HUVEC), VEGF-dependent proliferation. Kind of series: VEGF-dependent HUVEC proliferation inhibition assay. The class given is cell-based. The note with it: read-out: 50% proliferation inhibitory concentration (IC50 value) HUVEC (VEGF-dependent), 20 ng/mL of VEGF, 72 hours, WST-1. The protocol: as §1, §2

Values after ≈ are worked out from the molar mass of the structure shown.

By AUC is commonly meant the area under the concentration-time curve, a measure of exposure. Usually Cmax stands for the peak of the concentration-time curve. Usually solubility stands for the dissolved amount per volume that the medium holds. Low readings indicate little dissolved substance, high ones much dissolved substance. With `O=C(Nc1ccc(Oc2ccnc3[nH]ccc23)cc1)Nc1ccc(CCC(F)F)c(C(F)(F)F)c1` [Compound 12, 1-[4-(3,3-Difluoropropyl)-3-(trifluoromethyl)phenyl]-3-[4-(1H-pyrrolo[2,3-b]pyridin-4-yloxy)phenyl]urea], the IC50 was found to be 270 nM in series [1], 2600 nM in series [7] and 5.1 nM in series [8]. In series [2], the AUC worked out at 247 µg·h/mL. Also, the concentration in series [2] peaked (Cmax) at 22700 ng/mL. The “inhibition of the angiogenesis (in words)” value in series [3] (50 mg/kg) and in series [3] (100 mg/kg) was “significantly inhibited” throughout. The “Average FA score” value in series [3] (50 mg/kg oral) stood at 6.910; in series [3] (100 mg/kg oral), 6.833. Further, the solubility at 20 h in series [4] was 15 µg/mL (≈ 30.6 µM). Also, the “Tumor growth inhibition ratio (%)” value in series [5] (last administration day) was determined as 100%. For the same compound, in series [5] (maximum decrease), the “Decrease ratio in body weight (%)” value was determined as 6.5%. For the same compound, the inhibition at 0.0064 µM in series [6] came out at 81%.
As to `CNC(=O)c1cc(Oc2ccc(NC(=O)Nc3ccc(Cl)c(C(F)(F)F)c3)cc2)ccn1` [Compound A, BAY 43-9006, reference compound], in series [2], the area under the curve (AUC) was found to be 189 µg·h/mL and the highest concentration (Cmax) came to 19200 ng/mL. The “inhibition of the angiogenesis (in words)” value in series [3] (100 mg/kg) is listed as “did not significantly inhibit”. In addition, the “Average FA score” value in series [3] (100 mg/kg oral) stood at 7.258. This compound yielded a solubility at 20 h in series [4] of 6 µg/mL (≈ 12.9 µM).
